Measurements reported in article PMC3162038 (Journal of the American Chemical Society, 2011).

What was measured:
Format in all cases: biochemical
VldB = target: T1, VldB (Streptomyces hygroscopicus, UniProt Q15JG4); assay: HPLC and ESI-MS of product; conditions: valienol 1-phosphate as co-substrate; 1 mM Mg2+
T1 sequence (Q15JG4 1-373): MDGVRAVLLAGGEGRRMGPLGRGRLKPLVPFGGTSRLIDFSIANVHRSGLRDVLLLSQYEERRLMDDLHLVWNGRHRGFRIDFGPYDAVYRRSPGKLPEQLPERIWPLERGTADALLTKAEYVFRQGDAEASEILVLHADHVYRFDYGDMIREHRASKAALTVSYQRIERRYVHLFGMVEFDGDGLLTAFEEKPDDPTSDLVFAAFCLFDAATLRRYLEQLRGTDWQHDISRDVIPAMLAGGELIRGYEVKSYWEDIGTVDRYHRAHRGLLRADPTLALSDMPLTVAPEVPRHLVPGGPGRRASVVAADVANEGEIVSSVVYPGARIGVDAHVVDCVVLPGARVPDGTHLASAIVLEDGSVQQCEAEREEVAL

VldH = target: T2, VldH (Streptomyces hygroscopicus, UniProt Q15JF8); assay: ESI-MS of product; conditions: 5 mM substrate, 10 mM MgCl2, 50 mM Tris-HCl pH 7.5, 1.5 h
T2 sequence (Q15JF8 1-213): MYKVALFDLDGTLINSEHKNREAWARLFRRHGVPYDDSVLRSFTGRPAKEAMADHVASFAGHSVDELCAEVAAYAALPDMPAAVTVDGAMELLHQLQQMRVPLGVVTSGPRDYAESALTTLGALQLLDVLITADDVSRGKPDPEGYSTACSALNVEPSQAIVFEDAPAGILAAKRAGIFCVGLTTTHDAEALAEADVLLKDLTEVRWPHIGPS

OtsA = target: T3, OtsA (Escherichia coli, UniProt P31677); assay: ESI-MS of product; conditions: UDP-glucose and glucose 6-phosphate as substrates; 5 mM MgCl2, 50 mM Tris-HCl pH 7.5
T3 sequence (P31677 1-474): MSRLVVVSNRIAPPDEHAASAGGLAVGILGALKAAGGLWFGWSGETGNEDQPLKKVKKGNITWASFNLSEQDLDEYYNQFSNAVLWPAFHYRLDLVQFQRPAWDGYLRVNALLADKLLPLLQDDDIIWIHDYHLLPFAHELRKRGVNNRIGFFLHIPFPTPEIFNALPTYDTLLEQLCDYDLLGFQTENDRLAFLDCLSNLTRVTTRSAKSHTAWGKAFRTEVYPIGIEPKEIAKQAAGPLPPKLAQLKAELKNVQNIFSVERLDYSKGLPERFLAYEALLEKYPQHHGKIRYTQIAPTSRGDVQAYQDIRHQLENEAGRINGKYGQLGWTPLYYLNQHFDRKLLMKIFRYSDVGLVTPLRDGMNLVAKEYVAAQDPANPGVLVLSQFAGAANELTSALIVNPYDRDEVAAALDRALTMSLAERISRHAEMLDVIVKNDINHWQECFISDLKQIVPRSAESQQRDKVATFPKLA

Row | Compound | HPLC and ESI-MS of product (VldB) | ESI-MS of product (VldH) | ESI-MS of product (OtsA)
1 | Nc1nc2c(ncn2[C@@H]2O[C@H](COP(=O)(O)OP(=O)(O)OP(=O)(O)O)[C@@H](O)[C@H]2O)c(=O)[nH]1 [GTP] | effectively catalyzes the conversion of valienol 1-phosphate to GDP-valienol | – | –
2 | O=P(O)(O)OC[C@H]1O[C@H](O[C@H]2O[C@H](CO)[C@@H](O)[C@H](O)[C@H]2O)[C@H](O)[C@@H](O)[C@@H]1O [trehalose 6-phosphate] | – | VldH was able to catalyze dephosphorylation of trehalose 6-phosphate to give trehalose | the recombinant OtsA can catalyze the formation of trehalose 6-phosphate
